Patent publication US4623662A, “Antiatherosclerotic ureas and thioureas” (American Cyanamid Company, priority 1985, dated 1986)
Like-named read-outs stand apart in the source and are kept apart here.

Tests used:
[1] = biological target: T1, fatty acyl CoA: cholesterol acyl transferase (ACAT) (Rattus norvegicus, UniProt O70536); test: Inhibition of fatty acyl CoA:cholesterol acyl transferase (ACAT), rat adrenal enzyme; assay type: biochemical
T1 construct: The supernatant, containing the microsomal fraction, served as the source of the cholesterol-esterifying enzyme; from tissue; host or cells: rat adrenals, supernatant of 1,000 x g centrifugation containing the microsomal fraction
T1 sequence (O70536 1-545): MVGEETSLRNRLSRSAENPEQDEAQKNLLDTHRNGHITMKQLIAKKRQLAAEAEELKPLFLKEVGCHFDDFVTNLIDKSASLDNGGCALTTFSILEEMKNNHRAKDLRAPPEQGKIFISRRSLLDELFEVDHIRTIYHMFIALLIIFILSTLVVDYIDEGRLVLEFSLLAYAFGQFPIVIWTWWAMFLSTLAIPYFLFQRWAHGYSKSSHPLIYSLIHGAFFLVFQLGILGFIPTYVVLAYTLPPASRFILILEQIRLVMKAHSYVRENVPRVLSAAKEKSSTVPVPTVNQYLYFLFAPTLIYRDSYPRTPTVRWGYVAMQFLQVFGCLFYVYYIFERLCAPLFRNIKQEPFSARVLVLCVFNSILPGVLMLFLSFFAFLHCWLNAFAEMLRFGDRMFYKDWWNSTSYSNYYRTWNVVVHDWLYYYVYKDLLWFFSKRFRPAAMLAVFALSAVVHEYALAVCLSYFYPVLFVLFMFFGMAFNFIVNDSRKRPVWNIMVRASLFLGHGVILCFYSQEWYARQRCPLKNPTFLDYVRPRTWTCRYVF
Outline: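 Enzyme source was the microsomal supernatant of rat adrenal homogenate (0.2M potassium phosphate, pH 7.4) with BSA, preincubated with compound (5.2 μg/ml final for single-point) for 10 min at 37° C. Then [14C]oleoyl CoA added, 10 min at 37° C. TLC-separated cholesteryl ester was counted; percent inhibition versus control, IC50 from several concentrations.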

cholesterol absorption = test: Inhibition of cholesterol absorption in rats fed 1% cholesterol:0.5% cholic acid diet; assay type: in vivo, male Sprague-Dawley rats; settings: po, 336 h, rat, dose .03% of the diet, 2 weeks
Experimental: Inhibition of cholesterol absorption was determined by feeding male Sprague-Dawley rats, weighing 150-170 g, a 1% cholesterol:0.5% cholic acid diet for 2 weeks. The diet also contained compounds being tested at a dose of 0.001, 0.003, 0.01, or 0.03% of the diet. Control rats were fed the same diet without any compound. At the end of the test, the rats were sacrificed by decapitation. Blood was collected, centrifuged at […] for 10 minutes at 4° C.; and the serum was then analyzed for cholesterol and triglycerides enzymatically by the method of Trinder, P., Analyst, 77, 321 (1952) on a Centrifichem 400 analyzer. Livers were removed, a 0.4 g sample was taken from the center of the large lobe, and the sample was subjected to saponification using 25% saturated potassium hydroxide in ethanol. The resulting neutral sterols were extracted with petroleum ether and the extract analyzed for cholesterol. The effectiveness of the compound in inhibiting cholesterol absorption was measured by the lowering of either serum cholesterol or liver cholesterol relative the values for control rats.
Compounds which produced statistically significant inhibition of cholesterol absorption are considered to be active. Liver sterol (LS) and serum sterol (SS) values are expressed as a percentage of control values.

[2] = rat adrenal ACAT, final concentration 5.2 μg/ml, read-out: % Inhibition
[3] = read-out: LS (liver sterol), percentage of control values
[4] = read-out: SS (serum sterol), percentage of control values

Compound	inhibition at 5.2 µg/mL [1, 2] [%]	inhibition at 5.2 µg/mL [1] [%]	further results
COc1ccccc1CN(Cc1ccccc1F)C(=O)Nc1ccc(C)cc1C [1-(2-Fluorobenzyl)-1-(2-methoxybenzyl)-3-(2,4-dimethylphenyl)urea]	41.5	–	response vs control in vivo at 0.03 % (cholesterol absorption; [3]): 20%; response vs control in vivo at 0.03 % (cholesterol absorption; [4]): 45%
CCCCCCCN(Cc1ccco1)C(=O)Nc1cc(C)c(C)cc1C [1-(2-Furanylmethyl)-1-heptyl-3-(2,4,5-trimethylphenyl)urea]	93.8	–	response vs control in vivo at 0.03 % (cholesterol absorption; [3]): 38%; response vs control in vivo at 0.03 % (cholesterol absorption; [4]): 44%
CCCCCCCN(Cc1ccco1)C(=O)Nc1c(Cl)cc(Cl)cc1Cl [1-(2-Furanylmethyl)-1-heptyl-3-(2,4,6-trichlorophenyl)urea]	96.1	–	response vs control in vivo at 0.03 % (cholesterol absorption; [3]): 34%; response vs control in vivo at 0.03 % (cholesterol absorption; [4]): 37%
CC(C)(C)CCN(Cc1cccs1)C(=O)Nc1c(Cl)cc(Cl)cc1Cl [1-(3,3-Dimethylbutyl)-1-(2-thienylmethyl)-3-(2,4,6-trichlorophenyl)urea]	–	90	response vs control in vivo at 0.03 % (cholesterol absorption; [3]): 56%; response vs control in vivo at 0.03 % (cholesterol absorption; [4]): 58%
CC(C)(C)CCN(Cc1ccc(Cl)cc1)C(=O)Nc1c(Cl)cc(Cl)cc1Cl [1-(3,3-Dimethylbutyl)-1-(4-chlorobenzyl)-3-(2,4,6-trichlorophenyl)urea]	–	90	response vs control in vivo at 0.03 % (cholesterol absorption; [3]): 41%; response vs control in vivo at 0.03 % (cholesterol absorption; [4]): 73%
Cc1cc(Cl)cc(C)c1NC(=O)N(CCC(C)(C)C)Cc1ccc(Cl)cc1 [1-(3,3-Dimethylbutyl)-1-(4-chlorobenzyl)-3-(4-chloro-2,6-dimethylphenyl)urea]	–	90	response vs control in vivo at 0.03 % (cholesterol absorption; [3]): 25%; response vs control in vivo at 0.03 % (cholesterol absorption; [4]): 46%
CCCCN(Cc1ccccc1)C(=S)Nc1ccccc1 [1-Benzyl-1-(n-butyl)-3-phenyl thiourea]	82.4	–	–
COc1cccc(C(Cc2ccccc2)N(Cc2ccccc2)C(=O)Nc2ccc(C)cc2C)c1 (stereo not drawn) [1-Benzyl-1-[1-(3-methoxyphenyl)-2-phenylethyl]-3-(2,4-dimethylphenyl)urea]	86.4	–	–
COc1cccc(C(Cc2ccccc2)N(Cc2ccccc2)C(=O)Nc2cccc(C(F)(F)F)c2)c1 (stereo not drawn) [1-Benzyl-1-[1-(3-methoxyphenyl)-2-phenylethyl]-3-(3-trifluoromethylphenyl)urea]	88.1	–	–
Cc1ccc(NC(=O)N(Cc2ccccc2)C(Cc2ccccc2)c2ccc(OCc3ccccc3)cc2)c(C)c1 (stereo not drawn) [1-Benzyl-1-[1-(4-benzyloxyphenyl)-2-phenylethyl]-3-(2,4-dimethylphenyl)urea]	93	–	–
O=C(Nc1cc(Cl)c(Cl)cc1Cl)N(Cc1ccccc1)C(Cc1ccccc1)c1ccc(OCc2ccccc2)cc1 (stereo not drawn) [1-Benzyl-1-[2-phenyl-1-(4-benzyloxyphenyl)ethyl]-3-(2,4,5-trichlorophenyl)urea]	95	–	–
Cc1cc(C)c(NC(=O)N(Cc2ccccc2)C(Cc2ccccc2)c2ccc(OCc3ccccc3)cc2)cc1C (stereo not drawn) [1-Benzyl-1-[2-phenyl-1-(4-benzyloxyphenyl)ethyl]-3-(2,4,5-trimethylphenyl)urea]	93.7	–	–
O=C(Nc1ccc(Cl)cc1C(F)(F)F)N(Cc1ccccc1)C(Cc1ccccc1)c1ccc(OCc2ccccc2)cc1 (stereo not drawn) [1-Benzyl-1-[2-phenyl-1-(4-benzyloxyphenyl)ethyl]-3-(2-trifluoromethyl-4-chlorophenyl)urea]	92	–	–
O=C(Nc1cccc(C(F)(F)F)c1)N(Cc1ccccc1)C(Cc1ccccc1)c1ccc(OCc2ccccc2)cc1 (stereo not drawn) [1-Benzyl-1-[2-phenyl-1-(4-benzyloxyphenyl)ethyl]-3-(3-trifluoromethylphenyl)urea]	74	–	–
CC(C)(C)CCN(Cc1ccccc1)C(=O)Nc1c(F)cc(F)cc1F [1-Benzyl-1-[3,3-dimethylbutyl]-3-[2,4,6-trifluorophenyl]urea]	–	90	–
COc1ccc(OC)c(CCN(Cc2cccc(Cl)c2)C(=O)Nc2ccc(C)cc2C)c1 [1-[2-(2,5-Dimethoxyphenyl)ethyl]-1-(3-chlorobenzyl)-3-(2,4-dimethylphenyl)urea]	97.1	–	–
Cc1ccc(NC(=O)N(CCc2ccccc2Cl)Cc2ccc(C)c(C)c2)c(C)c1 [1-[2-(2-Chlorophenyl)ethyl]-1-(3,4-dimethylbenzyl)-3-(2,4-dimethylphenyl)urea]	92.8	–	–
Cc1ccc(CN(CCc2cccc(F)c2)C(=O)Nc2ccc(C)cc2C)cc1 [1-[2-(3-Fluorophenyl)ethyl]-1-(4-methylbenzyl)-3-(2,4-dimethylphenyl)urea]	–	80.5	–
CC(C)(C)CCN(Cc1ccc(CC(C)(C)C)cc1)C(=O)Nc1c(F)cc(F)cc1F [1-[3,3-dimethylbutyl]-1-[[4-(2,2-dimethylpropyl)phenyl]methyl]-3-[2,4,6-trifluorophenyl]urea]	–	90	–
CCCCc1ccc(CN(CCCCCCOS(C)(=O)=O)C(=O)Nc2c(Cl)cc(Cl)cc2Cl)cc1 [1-[(4-Butylphenyl)methyl]-1-[6-(methylsulfonyloxy)-hexyl]-3-(2,4,6-trichlorophenyl)urea]	–	90	–
CCCCc1ccc(CN(CCCCCCOS(C)(=O)=O)C(=O)Nc2ccc(Cl)cc2C)cc1 [1-[(4-Butylphenyl)methyl]-3-(4-chloro-2-methylphenyl)-1-[6-[(methylsulfonyl)oxy]hexyl]urea]	–	90	–
CCCCCCCN(Cc1ccc(CCCC)cc1)C(=O)Nc1c(F)cc(F)cc1F [1-[(4-butylphenyl)methyl]-1-(n-heptyl)-3-[2,4,6-trifluorophenyl]urea]	–	90	–
CCCCc1ccc(CN(CCC(C)(C)C)C(=O)Nc2c(F)cc(F)cc2F)cc1 [1-[(4-butylphenyl)methyl]-1-[3,3-dimethylbutyl]-3-[2,4,6-trifluorophenyl]urea]	–	90	–

The next lines start with results.

inhibition at 5.2 µg/mL [1, 2] [%]	Compound	inhibition at 5.2 µg/mL [1] [%]	further results
56.1	Cc1cccc(CN(CCc2ccccc2Cl)C(=O)Nc2ccc(C)cc2C)c1 [1-[2-(2-Chlorophenyl)ethyl]-1-(3-methylbenzyl)-3-(2,4-dimethylphenyl)urea]	–	–
29.2	Cc1ccc(NC(=O)N(CCc2ccccc2C)Cc2ccc(Br)cc2)c(C)c1 [1-[2-(2-Methylphenyl)ethyl]-1-(4-bromobenzyl)-3-(2,4-dimethylphenyl)urea]	–	–
53.3	COc1ccc(CCN(Cc2ccc(C)c(Cl)c2)C(=O)Nc2ccc(C)cc2C)cc1OC [1-[2-(3,4-Dimethoxyphenyl)ethyl]-1-(3-chloro-4-methylbenzyl)-3-(2,4-dimethylphenyl)urea]	–	–
57.4	COc1ccc(CCN(Cc2ccc(F)cc2)C(=O)Nc2ccc(C)cc2C)cc1OC [1-[2-(3,4-Dimethoxyphenyl)ethyl]-1-(4-fluorobenzyl)-3-(2,4-dimethylphenyl)urea]	–	–
95.7	Cc1cccc(CCN(Cc2cccc([N+](=O)[O-])c2)C(=O)Nc2ccc(C)cc2C)c1 [1-[2-(3-Methylphenyl)ethyl]-1-(3-nitrobenzyl)-3-(2,4-dimethylphenyl)urea]	–	–
7.8	Cc1ccc(NC(=O)N(CCc2cccc(C(F)(F)F)c2)Cc2ccccc2Cl)c(C)c1 [1-[2-(3-Trifluoromethylphenyl)ethyl]-1-(2-chlorobenzyl)-3-(2,4-dimethylphenyl)urea]	–	–
34.9	CCOc1ccc(CCN(Cc2ccc(C)cc2C)C(=O)Nc2ccc(C)cc2C)cc1 [1-[2-(4-Ethoxyphenyl)ethyl]-1-(2,4-dimethylbenzyl)-3-(2,4-dimethylphenyl)urea]	–	–
94.1	CCOc1ccc(CCN(Cc2ccccc2Cl)C(=O)Nc2ccc(C)cc2C)cc1 [1-[2-(4-Ethoxyphenyl)ethyl]-1-(2-chlorobenzyl)-3-(2,4-dimethylphenyl)urea]	–	–
96.8	CCCCc1ccc(CN(CCCCCCO)C(=O)Nc2ccc(C)cc2C)cc1 [1-[(4-Butylphenyl)methyl]-3-(2,4-dimethylphenyl)-1-(6-hydroxyhexyl)urea]	–	–
74.5	CCCCc1ccc(CN(CCOCCO)C(=O)Nc2ccc(C)cc2C)cc1 [1-[(4-Butylphenyl)methyl]-3-(2,4-dimethylphenyl)-1-[2-(2-hydroxyethoxy)ethyl]urea]	–	–
